This test concerns the target T1, MKNK1 (MNK1) (Homo sapiens, UniProt Q9BUB5).
T1 construct: purchased Thermo Fisher Scientific (Life Technologies) SelectScreen
Kind of test: SelectScreen Z'LYTE. It counts as biochemical. An outline of the steps:
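Percent values come from Thermo SelectScreen profiling of NU5455, combining activity and binding assays. CSF1R was run in Z'LYTE format at Km app ATP, and CAMK1 in Adapta format with ATP listed at 10.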

T1 sequence (Q9BUB5 whole entry): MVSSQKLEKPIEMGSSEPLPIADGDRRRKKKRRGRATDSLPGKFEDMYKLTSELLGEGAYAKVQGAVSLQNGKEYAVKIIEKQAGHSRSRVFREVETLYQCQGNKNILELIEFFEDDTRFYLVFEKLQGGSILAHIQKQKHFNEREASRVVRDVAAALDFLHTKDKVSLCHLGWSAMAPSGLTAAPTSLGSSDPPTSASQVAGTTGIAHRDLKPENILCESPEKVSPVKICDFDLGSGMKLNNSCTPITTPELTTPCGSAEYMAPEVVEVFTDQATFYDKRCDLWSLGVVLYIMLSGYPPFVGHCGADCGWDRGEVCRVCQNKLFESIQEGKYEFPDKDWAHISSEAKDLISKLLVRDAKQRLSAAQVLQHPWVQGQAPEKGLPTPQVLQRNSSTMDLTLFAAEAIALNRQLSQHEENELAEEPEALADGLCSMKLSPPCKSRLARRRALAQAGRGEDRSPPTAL

Regarding `CN(C(=O)CN1CCOCC1)c1ccc2sc3c(-c4cccc5c(=O)cc(N6CC7CCC(C6)O7)oc45)cccc3c2c1` [NU5455], the inhibition at 1 µM is -10.7%.

Values taken from publication PMC6934184, “Selective DNA-PKcs inhibition extends the therapeutic index of localized radiotherapy and chemotherapy” (The Journal of Clinical Investigation, 2019).
